Results on 1 sequence are retold here after paper PMC11813143, “HBV polymerase recruits the phosphatase PP1 to dephosphorylate HBc-Ser170 to complete encapsidation” (PLOS Pathogens, 2025).

Where no end group is shown, it is not given here.

This experiment relates to C-S170 Ab. The experiment can be described thus: ELISA binding of immobilized HBc CTD peptides to C-S170 Ab. Set-up: species or system rabbit. Conditions: Fig 1C; for O.D. Mean: mean of n = 2. As to the method: To quantify the binding specificity of C-S170 Ab with non-phosphorylated HBc-Ser170, a flat-bottomed 96-well plate was coated with 100 ng of various peptides, including the non-phosphorylated and phosphorylated peptides covering Ser150, Ser162 and Ser170, and then the C-S170 Ab was added to the wells. For the competition of various peptides to C-S170 Ab, the 96-well plate was coated with 100 ng of non-phosphorylated HBc-Ser170 peptide and then a preincubated mixture containing 100 ng of peptide and the C-S170 Ab was added to the wells. After incubation with rabbit IgG conjugated with HRP, TMB substrate and a stop solution were added. The absorbance at a wavelength of 450 nm (A450) with a reference wavelength of 650 nm was measured using a microplate reader. GraphPad Prism 5 software was used to generate bar graphs and calculate Kd values, binding percentages, and inhibition percentages.

On to PRRRRSQSPRRRR [Ser170], for which the “O.D. Mean” value was 0.008 ([Ab] 0.0001 ng/mL), 0.032 ([Ab] 0.001 ng/mL), 0.271 ([Ab] 0.01 ng/mL) and 1.801 ([Ab] 0.1 ng/mL). The O.D. is listed as 0.008 ([Ab] 0.0001 ng/mL, replicate 1); 0.008 ([Ab] 0.0001 ng/mL, replicate 2); 0.034 ([Ab] 0.001 ng/mL, replicate 1); 0.03 ([Ab] 0.001 ng/mL, replicate 2); 0.255 ([Ab] 0.01 ng/mL, replicate 1); 0.288 ([Ab] 0.01 ng/mL, replicate 2). Further, the O.D. is, setting by setting: ([Ab] 0.1 ng/mL, replicate 1) 1.753; ([Ab] 0.1 ng/mL, replicate 2) 1.85.
